# Laboratory results as given in PMC10580393, “The Psychedelic N,N-Dipropyltryptamine Prevents Seizures in a Mouse Model of Fragile X Syndrome via a Mechanism that Appears Independent of Serotonin and Sigma1 Receptors” (ACS Pharmacology & Translational Science, 2023).
# Assays:
# Conditions in all cases: read-out: DPT
# [1] = target: T1, human 5-HT2A receptor (h5-HT2AR) (Homo sapiens, UniProt P28223); experiment: TRUPATH BRET2 G protein activation assay, HEK293T; type: cell-based
# T1 construct: gene HTR2A; receptor cDNA (cDNA Resource Center) transiently expressed in HEK293T; with Rluc8-Galphaq, Gbeta3, GFP2-Ggamma9 for function
# T1 sequence (P28223 whole entry): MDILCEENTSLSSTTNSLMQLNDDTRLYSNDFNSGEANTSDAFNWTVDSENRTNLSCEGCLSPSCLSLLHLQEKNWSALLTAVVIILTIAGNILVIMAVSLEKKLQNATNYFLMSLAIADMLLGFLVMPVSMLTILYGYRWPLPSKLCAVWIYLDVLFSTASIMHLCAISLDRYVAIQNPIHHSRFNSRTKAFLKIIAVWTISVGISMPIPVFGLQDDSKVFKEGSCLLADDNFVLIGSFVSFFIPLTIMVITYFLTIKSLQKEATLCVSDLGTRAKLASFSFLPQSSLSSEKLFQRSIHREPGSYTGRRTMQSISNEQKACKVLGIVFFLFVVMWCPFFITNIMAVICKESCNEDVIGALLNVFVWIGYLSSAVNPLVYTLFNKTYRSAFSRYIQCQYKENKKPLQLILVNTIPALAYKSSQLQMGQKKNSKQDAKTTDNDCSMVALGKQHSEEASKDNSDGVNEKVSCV
# Excerpt: TRUPATH BRET2 G protein activation assay, HEK293T on human 5-HT2A receptor (h5-HT2AR)
# [2] = target: T1, human 5-HT2A receptor (h5-HT2AR); experiment: radioligand competition binding, cell membranes
# Excerpt: radioligand competition binding, cell membranes on human 5-HT2A receptor (h5-HT2AR)
# [3] = target: T2, human 5-HT1B receptor (h5-HT1BR) (Homo sapiens, UniProt P28222); experiment: TRUPATH BRET2 G protein activation assay, HEK293T; type: cell-based
# T2 construct: gene HTR1B; receptor cDNA (cDNA Resource Center) transiently expressed in HEK293T; with Rluc8-Galphai3, Gbeta3, GFP2-Ggamma9 for function
# T2 sequence (P28222 whole entry): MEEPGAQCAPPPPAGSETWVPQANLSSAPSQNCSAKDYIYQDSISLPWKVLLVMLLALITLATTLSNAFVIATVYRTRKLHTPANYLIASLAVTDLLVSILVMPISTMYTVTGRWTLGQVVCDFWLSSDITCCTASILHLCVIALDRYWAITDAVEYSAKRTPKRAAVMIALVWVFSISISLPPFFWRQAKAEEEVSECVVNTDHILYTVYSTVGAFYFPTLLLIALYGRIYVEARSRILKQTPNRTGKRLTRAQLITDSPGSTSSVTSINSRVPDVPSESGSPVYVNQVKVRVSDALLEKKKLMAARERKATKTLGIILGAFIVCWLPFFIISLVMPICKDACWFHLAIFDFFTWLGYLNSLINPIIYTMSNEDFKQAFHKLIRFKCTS
# Excerpt: TRUPATH BRET2 G protein activation assay, HEK293T on human 5-HT1B receptor (h5-HT1BR)
# [4] = target: T3, human 5-HT1A receptor (h5-HT1AR) (Homo sapiens, UniProt P08908); experiment: radioligand competition binding, cell membranes
# T3 construct: gene HTR1A; receptor cDNA (cDNA Resource Center) transiently expressed in HEK293T; with Rluc8-Galphai3, Gbeta3, GFP2-Ggamma9 for function
# T3 sequence (P08908 whole entry): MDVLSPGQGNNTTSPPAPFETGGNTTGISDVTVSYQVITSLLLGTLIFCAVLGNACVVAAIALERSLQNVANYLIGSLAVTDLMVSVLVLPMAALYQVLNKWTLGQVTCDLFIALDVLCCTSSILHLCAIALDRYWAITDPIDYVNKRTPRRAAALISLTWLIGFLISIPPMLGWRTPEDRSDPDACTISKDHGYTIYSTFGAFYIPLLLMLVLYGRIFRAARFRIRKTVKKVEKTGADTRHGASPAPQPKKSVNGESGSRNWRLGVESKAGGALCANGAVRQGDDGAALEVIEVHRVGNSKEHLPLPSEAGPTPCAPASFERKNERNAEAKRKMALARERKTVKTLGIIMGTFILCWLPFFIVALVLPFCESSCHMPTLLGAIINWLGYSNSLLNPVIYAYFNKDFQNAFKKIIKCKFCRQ
# Excerpt: radioligand competition binding, cell membranes on human 5-HT1A receptor (h5-HT1AR)
# [5] = target: T3, human 5-HT1A receptor (h5-HT1AR); experiment: TRUPATH BRET2 G protein activation assay, HEK293T; type: cell-based
# Excerpt: TRUPATH BRET2 G protein activation assay, HEK293T on human 5-HT1A receptor (h5-HT1AR)
# [6] = target: T2, human 5-HT1B receptor (h5-HT1BR); experiment: radioligand competition binding, cell membranes
# Excerpt: radioligand competition binding, cell membranes on human 5-HT1B receptor (h5-HT1BR)
smiles,measurement,setting,value
CCCN(CCC)CCc1c[nH]c2ccccc12 [DPT],EC50,[1],451 nM
same,Ki,[2],3 nM
same,EC50,[3],1210 nM
same,Ki,[4],1640 nM
same,EC50,[5],2430 nM
same,Ki,[6],8.08 µM
